Laboratory results published in patent US3992539A, “S-triazolo-[3,4-a]isoquinolines in treating inflammatory disorders” (Mallinckrodt, Inc., priority 1973, dated 1976).
Where a name gives a salt, the structure may show the parent alone. Read-outs that look alike come from different tables or passages of the source.

Tests used:
[1] = system: carrageenin-induced pedal edema; assay: inhibition of carrageenin-induced pedal edema in rats; assay type: in vivo, rats (male Wistar); details: Rattus norvegicus
Procedure: The anti-inflammatory activity of a number of representative compounds of the invention was determined by measuring inhibition of carrageenin-induced pedal edema in rats. The procedure used was a modification of the method of Winter et al., Proc. Soc. Exptl. […] The device used for measurement of the paw volume was an adaptation of the water displacement procedure described by Adamkiewicz et al., Can. J. Biochem. Physiol. […] The compounds were studied for their effectiveness in inhibiting the edema caused by the intraplantar injection of 0.05 ml. of a sterile 1.0% solution of carrageenin. […] The compounds were administered orally one hour prior to the injection of the phlogistic substance (carrageenin) into the left hind paw of the rats. At peak swelling time (3 hours), the volume of edema was calculated by differential paw volumes.

gastric secretion = assay: anti-secretory activity, pylorus-ligated fasting rats (Shay rat procedure); assay type: in vivo; details: for Anti-Secretory Activity (% Reduction of gastric secretion, ml./100 gm.): 50 mg./kg., fasting rats, 4 hours after pylorus ligation, subcutaneous (footnote), intraperitoneal; for anti-secretory activity rather than ulcerogenic properties (in words): rat, in vivo
Procedure: The anti-secretory properties of certain compounds of the invention was determined using the following procedure. The stomachs of fasting rats were ligated at the pylorus (Shay rat procedure) immediately followed by an intraperitoneal injection of 50 mg./kg. of each compound tested. Four hours later the animals were sacrificed, the stomachs removed and the total volume of fluid was measured.
*% Reduction of gastric secretion (ml./100 gm.) after subcutaneous
administration to fasting rats at 50 mg./kg.

[2] = U.S. Pat. No. 3,354,164; cited from earlier work
[3] = oral, one hour before carrageenin, edema at 3 hours, dose which reduced edema formation by 25% or more in 50% of the animals, read-out: Anti-Inflammatory Activity (ED50)
[4] = po, 3 h, read-out: Anti-Inflammatory Activity (ED50), known antiinflammatory agents
[5] = po, 3 h, typical ED50 values from the same test, read-out: Anti-Inflammatory Activity (ED50), known antiinflammatory agents

CCN(CC)CCNc1nnc2c3ccccc3ccn12 [3-(N,N-diethylaminoethylamino)-s-triazolo-[3,4-a]-isoquinoline]
ED50 [1, 3]: 172 mg/kg | Anti-Secretory Activity (% Reduction of gastric secretion, ml./100 gm.) (gastric secretion): 49% | anti-secretory activity rather than ulcerogenic properties (in words) (gastric secretion): exhibit anti-secretory activity rather than the ulcerogenic properties

CN1CCN(c2nnc3c4ccccc4c(Cl)cn23)CC1 [3-(N-methylpiperazino)-6-chloro-s-triazolo-[3,4-a]-isoquinoline]
ED50 [1, 3]: > 60 mg/kg

CC(=O)OCc1nnc2c3ccccc3ccn12 [3-Acetoxymethyl-s-triazolo-[3,4-a]-isoquinoline]
ED50 [1, 3]: ~100 mg/kg

COc1ccc2c(ccn3c(C)nnc23)c1 [3-Methyl-8-methoxy-s-triazolo-[3,4-a]-isoquinoline]
ED50 [1, 3]: 135 mg/kg

COc1ccc2c(c1)-c1nnc(C(F)(F)F)n1CC2.Cl [3-Trifluoromethyl-5,6-dihydro-9-methoxy-s-triazolo-[3,4-a]-isoquinoline Hydrochloride]
ED50 [1, 3]: 38 mg/kg

COC(=O)c1cn2c(C(F)(F)F)nnc2c2ccccc12 [3-Trifluoromethyl-6-carbomethoxy-s-triazolo-[3,4-a]-isoquinoline]
Anti-Secretory Activity (% Reduction of gastric secretion, ml./100 gm.) (gastric secretion): 6.4% | anti-secretory activity rather than ulcerogenic properties (in words) (gastric secretion): exhibit anti-secretory activity rather than the ulcerogenic properties

O=C(O)c1cn2c(C(F)(F)F)nnc2c2ccccc12 [3-Trifluoromethyl-6-carboxy-s-triazolo-[3,4-a]-isoquinoline,Potassium Salt]
ED50 [1, 3]: > 160 mg/kg

FC(F)(F)c1nnc2c3cc4c(cc3ccn12)OCO4 [3-Trifluoromethyl-8,9-methylenedioxy-s-triazolo-[3,4-a]-isoquinoline]
ED50 [1, 3]: 80 mg/kg

FC(F)(F)c1nnc2c3cc(Cl)ccc3ccn12 [3-Trifluoromethyl-9-chloro-s-triazolo-[3,4-a]-isoquinoline]
ED50 [1, 3]: ~160 mg/kg

COc1ccc2ccn3c(C(F)(F)F)nnc3c2c1 [3-Trifluoromethyl-9-methoxy-s-triazolo-[3,4-a]-isoquinoline]
ED50 [1, 3]: 39 mg/kg

Cc1ccc2ccn3c(C(F)(F)F)nnc3c2c1 [3-Trifluoromethyl-9-methyl-s-triazolo-[3,4-a]-isoquinoline]
ED50 [1, 3]: ~160 mg/kg | Anti-Secretory Activity (% Reduction of gastric secretion, ml./100 gm.) (gastric secretion): 22% | anti-secretory activity rather than ulcerogenic properties (in words) (gastric secretion): exhibit anti-secretory activity rather than the ulcerogenic properties

CC(C)Cc1nnc2c3ccccc3ccn12 [3-isobutyl-s-triazolo-[3,4-a]-isoquinoline]
ED50 [1, 3]: 130 mg/kg | Anti-Secretory Activity (% Reduction of gastric secretion, ml./100 gm.) (gastric secretion): 16% | anti-secretory activity rather than ulcerogenic properties (in words) (gastric secretion): exhibit anti-secretory activity rather than the ulcerogenic properties

Cc1nnc2c3cccc(Cl)c3ccn12.Cl [3-methyl-7-chloro-s-triazolo-[3,4-a]-isoquinoline hydrochloride]
ED50 [1, 3]: > 30 mg/kg

Br.Cc1nnc2c3cccc(C#N)c3ccn12 [3-methyl-7-cyano-s-triazolo-[3,4-a]-isoquinoline hydrobromide]
ED50 [1, 3]: < 100 mg/kg

COc1ccc2ccn3c(C)nnc3c2c1 [3-methyl-9-methoxy-s-triazolo-[3,4-a]-isoquinoline]
ED50 [1, 3]: 115 mg/kg

Cl.c1c2c(cc3c1OCO3)-c1nncn1CC2 [5,6-Dihydro-8,9-methylenedioxy-s-triazolo-[3,4-a]-isoquinoline, Hydrochloride]
ED50 [1, 3]: ~160 mg/kg

Cl.Cl.Clc1cccc2c1ccn1c(CN3CCOCC3)nnc21 [7-Chloro-3-morpholinomethyl-s-triazolo-[3,4-a]-isoquinoline (Dihydrochloride)]
ED50 [1, 3]: ~160 mg/kg

c1cn2cnnc2c2cc3c(cc12)OCO3 [8,9-Methylenedioxy-s-triazolo-[3,4-a]-isoquinoline]
ED50 [1, 3]: ~24 mg/kg | Anti-Secretory Activity (% Reduction of gastric secretion, ml./100 gm.) (gastric secretion): 29.5% | anti-secretory activity rather than ulcerogenic properties (in words) (gastric secretion): exhibit anti-secretory activity rather than the ulcerogenic properties

CC(=O)Oc1ccccc1C(=O)O [Aspirin, reference compound]
ED50 [1, 4]: 224 mg/kg

C[C@@H]1C[C@H]2[C@@H]3CCC4=CC(=O)C=C[C@]4(C)[C@@]3(F)[C@@H](O)C[C@]2(C)[C@@]1(O)C(=O)CO [Dexamethasone, reference compound]
ED50 [1, 4]: 0.18 mg/kg

CC(=O)OCC(=O)[C@@]1(O)CC[C@H]2[C@@H]3CCC4=CC(=O)CC[C@]4(C)[C@H]3[C@@H](O)C[C@@]21C [Hydrocortisone Acetate, reference compound]
ED50 [1, 5]: 26 mg/kg

COc1ccc2c(c1)c(CC(=O)O)c(C)n2C(=O)c1ccc(Cl)cc1 [Indomethacin, reference compound]
ED50 [1, 4]: 2.4 mg/kg

CCCCC1C(=O)N(c2ccccc2)N(c2ccccc2)C1=O [Phenylbutazone, reference compound]
ED50 [1, 5]: 30 mg/kg

c1ccc2c(c1)ccn1cnnc21 [s-triazolo-[3,4-a]-isoquinoline]
coronary vasodilator activity (in words) [2]: coronary vasodilators
